# Measured values: the supplement of paper PMC11208160
# Assay: recombinant barcode read abundance after kanamycin selection (control-corrected) (log10(CPM+1)); higher = more efficient recombination; sequences stand for … in AGTGCAGAGAAAATCGGCCAGTTTTCTCTGCCTGCAGTCCGCATGCCGT…AGATTTATGCAGCGGACTGCCTTTCTCCCAAAGTGATAAACCGGACAGTATCATGGACCGGTTTTCCCGGTAATCCGTATTTGCAAGGTTGGTTTCACT; site = the 11-nt target
# In short: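 In E. coli, a pooled library matched targets to IS621 bridge RNA target-binding loops and was introduced alongside a donor plasmid. Cells went onto chloramphenicol/ampicillin/kanamycin with 0.1 mM IPTG or onto chloramphenicol/ampicillin LB agar as control, in duplicate. Recombination efficiency, from recombinant-junction barcodes as counts per million, is averaged and control-corrected. It is reported as log10(CPM+1).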
# 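Further: IS621 recombinase and bridge RNA in Escherichia coli cells.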
row,Sequence,recombinant barcode read abundance (log10)
1,ATGTCTACTTGGGTTCTAACCTGTTGCCA (site ATAACTACTTG),0.0597
2,ATGTCTACTTGGGTTCTAACCTGTTGCCA (site ATGTCTACTTG),0.0628
3,ATTACCTCTTGGGTTCTAACCTGTTGCCT (site AATACCTCTAG),0.0245
4,ATTACCTCTTGGGTTCTAACCTGTTGCCT (site ACTACCTCTAG),0.0829
5,ATTACCTCTTGGGTTCTAACCTGTTGCCT (site AGTACCTCTAG),0.0695
6,ATTACCTCTTGGGTTCTAACCTGTTGCCT (site ATTACCTCTAG),1.1
7,ATTACTTCTTGGGTTCTAACCTGTTGCTT (site ATTACTTCTAA),0.282
8,ATTACTTCTTGGGTTCTAACCTGTTGCTT (site GAGTTCCCTGG),0.406
9,ATTAGGACTTGGGTTCTAACCTGTTGCAG (site ATTAGGACTCA),0.579
10,ATTAGGACTTGGGTTCTAACCTGTTGCAG (site ATTAGGACTCT),2.1
11,ATTAGGACTTGGGTTCTAACCTGTTGCGA (site AATAGGACTGC),0.03
12,ATTAGGACTTGGGTTCTAACCTGTTGCGA (site ATTAGGACTTC),2.3
13,ATTAGTGCTTGGGTTCTAACCTGTTGCCT (site AATAGTGCTAG),0.605
14,ATTAGTGCTTGGGTTCTAACCTGTTGCCT (site ACTAGTGCTAG),0
15,ATTAGTGCTTGGGTTCTAACCTGTTGCCT (site AGTAGTGCTAG),0.118
16,ATTAGTGCTTGGGTTCTAACCTGTTGCCT (site ATTAGTGCTAG),0.0389
17,ATTCACACTTGGGTTCTAACCTGTTGCGT (site ATTCACACTAC),2.16
18,ATTCACACTTGGGTTCTAACCTGTTGCGT (site CGATTAGCTCG),0.0576
19,ATTGGATCTTGGGTTCTAACCTGTTGCCT (site ATTGGATCTAG),0.391
20,ATTGGATCTTGGGTTCTAACCTGTTGCCT (site ATTGGCTCTAG),0.0247
21,ATTGGATCTTGGGTTCTAACCTGTTGCCT (site ATTGGGTCTAG),0.0971
22,ATTGGATCTTGGGTTCTAACCTGTTGCCT (site ATTGGTTCTAG),0.205

row,Sequence,recombinant barcode read abundance (log10)
1,ATTTCCACTTGGGTTCTAACCTGTTGCCT (site AAGTCCACTAG),0.176
2,ATTTCCACTTGGGTTCTAACCTGTTGCCT (site ATTTCCACTAG),0.433
3,ATTTGCCCTTGGGTTCTAACCTGTTGCCT (site AATTGCCCTAG),0.222
4,ATTTGCCCTTGGGTTCTAACCTGTTGCCT (site ACTTGCCCTAG),0.0987
5,ATTTGCCCTTGGGTTCTAACCTGTTGCCT (site AGTTGCCCTAG),0.0335
6,ATTTGCCCTTGGGTTCTAACCTGTTGCCT (site ATTTGCCCTAG),0.122
7,CAAAACTCTTGGGTTCTAACCTGTTGCTT (site CAAAACTCTAA),0.554
8,CAAAACTCTTGGGTTCTAACCTGTTGCTT (site TCCCCGGCTCC),0.0614
9,CAAAAGGCTTGGGTTCTAACCTGTTGCAG (site CAAAAGGCTCT),1.7
10,CAAAAGGCTTGGGTTCTAACCTGTTGCAG (site CAAAGGGCTCT),0.386
11,CAAAATTCTTGGGTTCTAACCTGTTGCGT (site CAAAATTCTAC),0.703
12,CAAAATTCTTGGGTTCTAACCTGTTGCGT (site CAGAATACTAC),0.0891
13,CAAACAGCTTGGGTTCTAACCTGTTGCCT (site CAAACAACTAG),0.0742
14,CAAACAGCTTGGGTTCTAACCTGTTGCCT (site CAAACACCTAG),0.634
15,CAAACAGCTTGGGTTCTAACCTGTTGCCT (site CAAACAGCTAG),0.824
16,CAAACAGCTTGGGTTCTAACCTGTTGCCT (site CAAACATCTAG),0.113
17,CAAACCGCTTGGGTTCTAACCTGTTGCCT (site CAAACCGCTAG),1.14
18,CAAACCGCTTGGGTTCTAACCTGTTGCCT (site CCAACCGCTAG),0.0884
19,CAAACCGCTTGGGTTCTAACCTGTTGCCT (site CGAACCGCTAG),0.356
20,CAAACCGCTTGGGTTCTAACCTGTTGCCT (site CTAACCGCTAG),0.117
21,CAAACTCCTTGGGTTCTAACCTGTTGCGT (site CAAACTCCTAA),0.124
22,CAAACTCCTTGGGTTCTAACCTGTTGCGT (site CAAACTCCTAC),0.951

row,Sequence,recombinant barcode read abundance (log10)
1,CAAACTCCTTGGGTTCTAACCTGTTGCGT (site CAAACTCCTAG),0.0424
2,CAAACTCCTTGGGTTCTAACCTGTTGCGT (site CAAACTCCTAT),0.0528
3,CAAAGATCTTGGGTTCTAACCTGTTGCCT (site CAAAGATCTAG),0.821
4,CAAAGATCTTGGGTTCTAACCTGTTGCCT (site CCAAGATCTAG),0
5,CAAAGATCTTGGGTTCTAACCTGTTGCCT (site CGAAGATCTAG),0.023
6,CAAAGATCTTGGGTTCTAACCTGTTGCCT (site CTAAGATCTAG),0.165
7,CAAATAACTTGGGTTCTAACCTGTTGCCT (site CAAATAACTAG),0.461
8,CAAATAACTTGGGTTCTAACCTGTTGCCT (site CAGCTAACTAG),0.134
9,CAAATCCCTTGGGTTCTAACCTGTTGCGT (site ATCGAGTCTTG),0.174
10,CAAATCCCTTGGGTTCTAACCTGTTGCGT (site CAAATCCCTAC),2.08
11,CAACACTCTTGGGTTCTAACCTGTTGCCT (site CAACACTCTAG),2.43
12,CAACACTCTTGGGTTCTAACCTGTTGCCT (site CCACACTCTAG),0.452
13,CAACACTCTTGGGTTCTAACCTGTTGCCT (site CGACACTCTAG),0.102
14,CAACACTCTTGGGTTCTAACCTGTTGCCT (site CTACACTCTAG),0.446
15,CAACCGTCTTGGGTTCTAACCTGTTGCCT (site CAACCGACTAG),0
16,CAACCGTCTTGGGTTCTAACCTGTTGCCT (site CAACCGCCTAG),0.439
17,CAACCGTCTTGGGTTCTAACCTGTTGCCT (site CAACCGGCTAG),0.0528
18,CAACCGTCTTGGGTTCTAACCTGTTGCCT (site CAACCGTCTAG),1.33
19,CAACGACCTTGGGTTCTAACCTGTTGCCT (site AAACGACCTAG),0.172
20,CAACGACCTTGGGTTCTAACCTGTTGCCT (site CAACGACCTAG),1.75
21,CAACGACCTTGGGTTCTAACCTGTTGCCT (site GAACGACCTAG),0.171
22,CAACGACCTTGGGTTCTAACCTGTTGCCT (site TAACGACCTAG),0.166

row,Sequence,recombinant barcode read abundance (log10)
1,CAACGAGCTTGGGTTCTAACCTGTTGCCG (site CAACGAGCTCG),0.506
2,CAACGAGCTTGGGTTCTAACCTGTTGCCG (site CACCGAGCTCG),0.186
3,CAACGAGCTTGGGTTCTAACCTGTTGCCG (site CAGCGAGCTCG),0
4,CAACGAGCTTGGGTTCTAACCTGTTGCCG (site CATCGAGCTCG),0.218
5,CAACGGCCTTGGGTTCTAACCTGTTGCCT (site CAAAGGCCTAG),0
6,CAACGGCCTTGGGTTCTAACCTGTTGCCT (site CAACGGCCTAG),0.796
7,CAACGGCCTTGGGTTCTAACCTGTTGCCT (site CAAGGGCCTAG),0.55
8,CAACGGCCTTGGGTTCTAACCTGTTGCCT (site CAATGGCCTAG),0.0566
9,CAACTAGCTTGGGTTCTAACCTGTTGCAT (site CAACTAGCTAT),0.691
10,CAACTAGCTTGGGTTCTAACCTGTTGCAT (site TTGTACACTGA),0.028
11,CAAGCACCTTGGGTTCTAACCTGTTGCTT (site CAAACACCTAA),0.121
12,CAAGCACCTTGGGTTCTAACCTGTTGCTT (site CAACCACCTAA),0.0852
13,CAAGCACCTTGGGTTCTAACCTGTTGCTT (site CAAGCACCTAA),0.187
14,CAAGCACCTTGGGTTCTAACCTGTTGCTT (site CAATCACCTAA),0.338
15,CAAGGTCCTTGGGTTCTAACCTGTTGCGG (site CAAGGTCCTCC),2.68
16,CAAGGTCCTTGGGTTCTAACCTGTTGCGG (site GTTACCTCTAG),0.194
17,CAAGTGGCTTGGGTTCTAACCTGTTGCCT (site CAAGTAGCTAG),0.417
18,CAAGTGGCTTGGGTTCTAACCTGTTGCCT (site CAAGTCGCTAG),0.0501
19,CAAGTGGCTTGGGTTCTAACCTGTTGCCT (site CAAGTGGCTAG),1.21
20,CAAGTGGCTTGGGTTCTAACCTGTTGCCT (site CAAGTTGCTAG),0.721
